{"source": "patent US11254965B2", "about": "(priority 2015, dated 2022)", "key": {"Lso": {"tested_on": "Lso", "type": "cell-based, Candidatus Liberibacter solanacearum", "conditions": "100 mg/L penicillin"}, "CLso": {"tested_on": "CLso", "type": "cell-based, Candidatus Liberibacter solanacearum", "conditions": "48 h treatment, CLso-potato hairy roots"}}, "note": "Read-outs that look alike come from different tables or passages of the source.", "data": [{"compound": "penicillin", "values": [{"measurement": "Lso titer versus Lso colonized hairy roots not exposed", "setting": "Lso; 2 days of exposure", "value": "significantly lower titer of Lso"}, {"measurement": "Lso titer versus Lso colonized hairy roots not exposed", "setting": "Lso; 7 days of exposure", "value": "significantly lower titer of Lso"}, {"measurement": "relative CLso titers versus DMSO control", "setting": "CLso; 100 ppm", "value": "significantly suppressed CLso titers"}, {"measurement": "relative CLso titers versus DMSO control", "setting": "CLso; 100 ppm, listed as Penicillin", "value": "decreased CLso titers"}]}, {"compound": "O=C(O)c1ccccc1O", "note": "[salicylic acid]", "values": [{"measurement": "relative CLso titers versus DMSO control", "setting": "CLso; 100 uM", "value": "no significant effect"}]}, {"compound": "CC/C=C\\CC1C(=O)CCC1CC(=O)OC", "note": "(stereo not shown) [methyl-JA, methyl jasmonate]", "values": [{"measurement": "relative CLso titers versus DMSO control", "setting": "CLso; 10 uM", "value": "suppressed CLso"}, {"measurement": "relative CLso titers versus DMSO control", "setting": "CLso; 10 uM, listed as methyl-jasmonate", "value": "decreased CLso titers"}]}]}
